Data from US20120129811A1, “TRICYCLIC INHIBITORS OF PRO-MATRIX METALLOPROTEINASE ACTIVATION” (priority 2010, published 2012).

How the values were obtained:
[1] = target: T1, MMP9 (Rattus norvegicus, UniProt P50282); test: Western blot of pro and active MMP9 in ankles of rats with SCW-induced arthritis; type: in vivo; settings: Day 26, four hours after AM dose
T1 construct: Pro and active MMP9 were abundantly present in ankles of SCW-induced vehicle-treated rats; from tissue; host or cells: tibia-tarsus joints (ankles) of female Lewis rats
T1 sequence (P50282 108-708): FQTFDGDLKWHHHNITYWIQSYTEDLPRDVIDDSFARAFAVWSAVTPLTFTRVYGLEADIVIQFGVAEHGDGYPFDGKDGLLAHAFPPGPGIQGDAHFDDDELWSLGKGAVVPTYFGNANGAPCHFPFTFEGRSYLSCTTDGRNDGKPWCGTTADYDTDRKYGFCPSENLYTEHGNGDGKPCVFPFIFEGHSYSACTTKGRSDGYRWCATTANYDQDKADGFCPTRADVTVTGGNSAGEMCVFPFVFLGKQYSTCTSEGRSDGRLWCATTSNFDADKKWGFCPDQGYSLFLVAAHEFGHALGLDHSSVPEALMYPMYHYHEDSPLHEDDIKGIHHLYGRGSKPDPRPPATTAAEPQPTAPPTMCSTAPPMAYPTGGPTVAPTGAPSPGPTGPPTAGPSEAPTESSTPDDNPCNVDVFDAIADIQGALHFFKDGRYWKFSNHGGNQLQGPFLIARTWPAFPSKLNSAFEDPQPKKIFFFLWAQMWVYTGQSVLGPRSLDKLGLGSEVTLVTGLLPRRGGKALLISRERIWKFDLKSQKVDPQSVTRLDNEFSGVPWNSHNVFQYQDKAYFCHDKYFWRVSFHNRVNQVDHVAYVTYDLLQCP
Procedure: Hind-limbs were skinned, severed just above the tibia-tarsus joint and below the metatarsals, and the tibia-tarsus joints (ankles) were weighed, snap frozen and pulverized on dry ice using a hammer and anvil. The pulverized tissue was suspended in 3 volumes (w:v) of ice-cold homogenization buffer containing 50 mM Tris pH 7.5, 150 mM NaCl, 5 mM EDTA, 1% Triton X100, 0.05% Brij 30, 10% dimethylsulfoxide and Complete EDTA-free Protease Inhibitor Cocktail (Roche Diagnostics). The suspended tissue was homogenized sequentially with a Kinematica AG Polytron and a Dounce homogenizer. Homogenates were centrifuged at 16,000×g for 10 min at 4° C. and the soluble fractions were saved. Dimethylsulfoxide was removed from a portion of each soluble fraction using PD MiniTrap™ G-25 desalting columns (GE Healthcare). Homogenates (0.25 mL), free of DMSO, were diluted with an equal volume of binding buffer (i.e., homogenization buffer without dimethylsufoxide) and adjusted to contain 50 μL of a 50% slurry of gelatin-conjugated sepharose. Following 2 hours of rotation at 4° C. the beads were washed twice in binding buffer and eluted in 100 μL 2×-reducing Laemmli buffer with heating to 95° C. for 5 minutes. […]

[2] = target: T2, proMMP9 activation to active MMP9 in rat synoviocytes (Rattus norvegicus, UniProt P50282); test: Activation of proMMP9 in rat synoviocyte cultures (Western blot); type: cell-based
T2 construct: endogenous in cells; host or cells: primary synoviocytes from SCW-arthritic female Lewis rats, TNFα-stimulated
T2 sequence (P50282 20-708 limits assumed): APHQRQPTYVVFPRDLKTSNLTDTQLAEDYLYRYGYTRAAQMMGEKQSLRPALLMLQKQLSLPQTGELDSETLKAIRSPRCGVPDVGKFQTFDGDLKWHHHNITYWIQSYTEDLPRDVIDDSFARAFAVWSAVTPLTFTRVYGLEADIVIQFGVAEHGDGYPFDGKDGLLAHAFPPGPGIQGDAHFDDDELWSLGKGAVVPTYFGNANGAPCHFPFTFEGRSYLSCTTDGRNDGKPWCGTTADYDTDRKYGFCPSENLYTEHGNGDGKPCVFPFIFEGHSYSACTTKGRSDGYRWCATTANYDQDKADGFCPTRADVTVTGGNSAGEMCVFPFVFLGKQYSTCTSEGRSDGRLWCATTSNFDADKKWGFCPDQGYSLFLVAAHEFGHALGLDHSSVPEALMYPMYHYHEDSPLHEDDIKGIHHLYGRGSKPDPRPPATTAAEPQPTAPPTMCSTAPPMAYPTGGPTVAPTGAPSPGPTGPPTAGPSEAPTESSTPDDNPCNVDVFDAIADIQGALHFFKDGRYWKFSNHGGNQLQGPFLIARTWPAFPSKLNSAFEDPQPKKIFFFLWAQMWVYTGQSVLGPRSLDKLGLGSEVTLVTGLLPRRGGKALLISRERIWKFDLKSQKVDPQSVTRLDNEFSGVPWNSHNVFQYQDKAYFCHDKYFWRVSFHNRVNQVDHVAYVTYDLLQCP
Text: Activation of proMMP9 in Rat Synoviocyte Cultures
A primary synoviocytes line was derived from the periarticular tissue of arthritic rats. Arthritis was induced in female Lewis rats following an i.p. administration of streptococcal cell wall peptidoglycan polysaccharides (J Exp Med 1977; 146:1585-1602). Rats with established arthritis were sacrificed, and hind-limbs were severed, immersed briefly in 70% ethanol, and placed in a sterile hood. The skin was removed and the inflamed tissue surrounding the tibia-tarsal joint was harvested using a scalpel. Tissue from six rats was pooled, minced to approximately 8 mm^3 pieces, and cultured in Dulbecco's Modified Eagle's Medium (DMEM) containing 15% fetal calf serum (FCS). In the following weeks, cells migrated out of the tissue piece, proliferated, and formed a monolayer of adherent cells. The synoviocytes were lifted from culture plates with 0.05% trypsin and passaged weekly at 1:4 ratios in DMEM containing 10% FCS. Synoviocytes were used at passage 9 to investigate the ability of Compound-α to inhibit the maturation of MMP9 to active form.
Rat synoviocytes spontaneously expressed and activated MMP9 when cultured in collagen gels and stimulated with tumor necrosis factor-alpha (TNFα) (FIG. 1 and Table 3). Eight volumes of an ice-cold solution of 3.8 mg/mL rat tail collagen (Sigma Cat #C3867-1VL) were mixed with 1 volume of 1 M sodium bicarbonate and 1 volume of 10× Roswell Park Memorial Institute medium. The pH of the mixture was adjusted to pH 7 with 1 N sodium hydroxide and equal volumes of the pH-adjusted collagen solution were mixed with DMEM containing 0.8 million synoviocytes per mL. One half mL volumes were dispensed into Costar 24-well culture dishes and placed for one hr at 37° C. and 5% CO2, during which time the collagen solution formed a gel. Individual gels were dislodged into wells of 12-well Costar plates containing 1 mL/well of DMEM adjusted to contain 0.05% BSA and 100 ng/mL mouse TNFα (R&D Systems Cat #410-MT-010). […] After overnight culture at 37° C. and 5% CO2, wells were adjusted to contain an additional 0.5 mL of DMEM containing 0.05% BSA and Compound-α at 4× the final desired concentration (final culture volumes were 2 mL). The plates were cultured an additional 48 hrs, at which time 1 mL of conditioned media were harvested into fresh eppendorf tubes containing 40 μL/mL of a 50% slurry of gelatin-conjugated sepharose (GE Healthcare Cat #17-0956-01). Samples were rotated for 2 hrs at 4° C. before centrifugation 1 min×200 g. Supernatants were discarded. The gelatin-sepharose pellets were washed once with 1 mL of ice cold DMEM, resuspended in 50 μL of 2× reducing Leamli buffer and heated 5 min at 95° C. Fifteen μL of eluted proteins were resolved on 4-12% NuPAGE gels and transferred to 0.45 μm pore-sized nitrocellose blots. Next, blots were incubated in blocking buffer (5% milk in Tris-buffered saline containing 0.1% Tween-20) for 1 hr at RT and probed overnight (4° C.) with blocking buffer containing 1 μg/mL primary antibodies. Blots were next probed 1 hr at RT with 1/10,000 dilutions of goat anti-mouse IgG-HRP or goat anti-rabbit IgG-HRP (Santa Cruz) in blocking buffer and developed using SuperSignal® West Fempto Maximum Sensitivity Substrate. Chemiluminesence signal was analyzed using a ChemiDoc imaging system (BioRad Laboratories) and Quantity One® image software. Electrophoretic mobility was estimated based on the mobility of standards (Novex Sharp Pre-Stained Protein Standards P/N 57318). […]

Cc1nc(C)c(-c2csc(Nc3cc(S(N)(=O)=O)ccc3OC(C)C)n2)s1 [Compound α, 3-(2′,4′-Dimethyl-[4,5′]bithiazolyl-2-ylamino)-4-isopropoxy-benzenesulfonamide.HBr]
effect on abundance of proMMP9 in ankles ([1]; mAb-L51/82): did not reduce the abundance of proMMP-9
effect on abundance of proMMP9 in ankles ([1]; mAb-L51/82, listed as Compound-α): did not reduce the abundance of proMMP9
inhibition at 0.37 µM ([2]; 0.37 μM Compound-α, 80 kD active MMP9, pAb-1246): 12%
inhibition at 1.1 µM ([2]; 1.1 μM Compound-α, 80 kD active MMP9, pAb-1246): 46%
inhibition at 3.3 µM ([2]; 3.3 μM Compound-α, 80 kD active MMP9, pAb-1246): 86%
inhibition at 10 µM ([2]; 10 μM Compound-α, 80 kD active MMP9, pAb-1246): 97%
IC50 ([2]; rat synoviocytes, pAb-1246 band chemiluminescence, read-out: IC50 for inhibition of production of active MMP9): ~1100 nM
